Calls of active or inactive are those of the source.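 The calls were made as follows: active = fitted EC50 no more than tenfold above the highest tested concentration; inconclusive = flat fit with 30 to 70% signal loss, or poor fit; inactive = the rest.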
system: Candida albicans CaCi-2 growth (no fluconazole), Alamar Blue; assay: intrinsic antifungal toxicity in Candida, azole-free – CaCi-2 strain, Alamar Blue fluorescence, counter-screen for fluconazole resistance reversal project, dose response (AID 2387); details: C. albicans CaCi-2 (fluconazole-resistant clinical isolate) growth without fluconazole, 48 h

**Q.** How did the EC50 turn out when `CC/C(=N/NC(=O)c1ccccc1O)c1c(C)[nH]n(-c2ccccc2)c1=O` was run?
**A.** The EC50 was > 15 µM (inactive).

**Q.** `Oc1ccc(N=Nc2ccc3c(c2)OCCO3)c2cccnc12` was tested. Which EC50 did it give?
**A.** Its EC50 is 3.65 µM.

**Q.** With `Cc1ccc(NC(=O)CNC(=O)c2ccc(Oc3ccccc3)cc2)nc1` as the molecule, how does the EC50 read?
**A.** Its EC50 is > 15 µM (inactive).

**Q.** `O=C(N/N=C/c1ccccc1O)c1cccc(C(F)(F)F)c1` was tested. Which EC50 did it give?
**A.** The EC50 was > 15 µM (inactive).
